According to publication PMC2011259, “Pentamethylmelamine (PMM): Phase I clinical and pharmacokinetic studies” (British Journal of Cancer, 1983):
Where two headings read alike, the source gives them in different places.

How the values were obtained:
[1] = Pharmacokinetic studies: plasma levels of PMM, TMM and TRIMM by gas liquid chromatography; type: in vivo, man; conditions: for Detection as PMM metabolite in plasma / Quantity of metabolite in plasma: after i.v. PMM; for Detection as PMM metabolite in plasma: patients studied; for Plasma concentration relative to parent drug: 2 h after the end of the infusion; for half-life: intravenous
Source text: (§1) Br. J. Cancer (1983), 47, 027-033 Pentamethylmelamine (PMM): Phase I clinical and pharmacokinetic studies J.R.F. Muindi*, D.R. Newellt, I.E. Smith* & K.R. Harrapt *Division of Medicine, Institute of Cancer Research and Royal Marsden Hospital, and the tDepartment of Biochemical Pharmacology, Institute of Cancer Research, Sutton, Surrey. […] PMM has been administered as an intravenous infusion to 17 patients in a Phase I clinical trial. […] In the present study the results of the Phase I clinical evaluation of PMM at the Royal Marsden Hospital are reported. In addition to the clinical assessment of patients, pharmacokinetic studies were also performed. […] (Broggini et al., 1981; Morimoto et al., 1980; Ames et al., 1979; Casper et al., 1981; Idhe et al., 1981; Benvenuto et al., 1981; Rutty et al., 1982). […] The mechanism of action of N-methylolmelamines is, however, still uncertain. To ascertain the rate and extent of PMM metabolism in man, plasma levels of the parent drug and the first two products of oxidative N- demethylation i.e. N2,N2,N4,N6-tetramethyl- melamine (TMM) and N2,N4,N6-trimethylmelamine (TRIMM) were measured (Figure 2). […] Materials and methods Patient selection The patients entered in the PMM Phase I clinical study were all under the care of the Royal Marsden Hospital. […] Additional criteria required for eligibility to enter into the study included: WBC and platelet count > 3000 uM I-' and > 100,000 pM 11 respectively; blood urea and serum creatinine < 8 mM ,M I1- and < 106 pM 1 respectively. None of the patients had received cancer chemotherapy or radiotherapy during the 3-week period preceding their entry into the study. […] The treatment protocol was approved by the Ethical Committee of the Royal Marsden Hospital and informed consent was obtained from all patients prior to entry into the study. […] It was supplied by Prof. W.C.J. Ross of the Chester Beatty Research Institute, London, as a white crystalline powder. PMM (2mg ml-') was infused intravenously as a 2% ethanol 5% dextrose solution after micropore (0.22 pm) filtration. All formulated PMM infusions were used within 24h of preparation, as a sterility precaution. PMM was initially given at a dose of […] and the dose escalated to 1300mgm-2 according to a modified Fibonacci scheme (Table II). At higher PMM doses, requiring large infusion volumes, the infusion time was extended from 1 to 4 h. No dose escalation was TRIMM CH3 Nc"N H 11 H Ii N N H CH3 HCHO 1. carried out in the same patient.

[2] = oral HMM 120-300 mg m-2, n = 9 (9/11 patients), mean + SEM; ref D'Incalci et al. (1978); cited from earlier work
[3] = test system: patients with malignant tumours; assay: Phase I clinical evaluation of toxicity of PMM given as intravenous infusion; type: in vivo, man; design: key to Nausea/vomiting Intensity: Mild: Vomiting once or twice during the infusion and requiring no anti- emetics was classified as mild; Moderate: vomiting that persisted up to 6 h after infusion and requiring a maximum administration of two courses of anti- emetics was regarded as moderate; Severe: Vomiting was classified as severe if it continued up to 24 h after PMM infusion and/or could only be controlled partially by repeated doses of anti-emetics; conditions: for Nausea/vomiting Frequency: per courses
Source text: as §1

malignant tumours = assay: Tumour response in the Phase I trial; type: in vivo, man
Source text: Br. J. Cancer (1983), 47, 027-033 Pentamethylmelamine (PMM): Phase I clinical and pharmacokinetic studies J.R.F. Muindi*, D.R. Newellt, I.E. Smith* & K.R. Harrapt *Division of Medicine, Institute of Cancer Research and Royal Marsden Hospital, and the tDepartment of Biochemical Pharmacology, Institute of Cancer Research, Sutton, Surrey. […] PMM has been administered as an intravenous infusion to 17 patients in a Phase I clinical trial. […] In the present study the results of the Phase I clinical evaluation of PMM at the Royal Marsden Hospital are reported. In addition to the clinical assessment of patients, pharmacokinetic studies were also performed. […] (Broggini et al., 1981; Morimoto et al., 1980; Ames et al., 1979; Casper et al., 1981; Idhe et al., 1981; Benvenuto et al., 1981; Rutty et al., 1982). […] The mechanism of action of N-methylolmelamines is, however, still uncertain. To ascertain the rate and extent of PMM metabolism in man, plasma levels of the parent drug and the first two products of oxidative N- demethylation i.e. N2,N2,N4,N6-tetramethyl- melamine (TMM) and N2,N4,N6-trimethylmelamine (TRIMM) were measured (Figure 2). […] Materials and methods Patient selection The patients entered in the PMM Phase I clinical study were all under the care of the Royal Marsden Hospital. […]

[4] = design: method as in Cumber & Ross, 1977; conditions: compared with N2,N4,N6-trimethyl-N2,N4,N6-trimethylolmelamine; ref Cumber & Ross, 1977; cited from earlier work
[5] = test system: experimental tumour test systems; design: method as in earlier work; conditions: a number of experimental tumour test systems, ref Cumber & Ross, 1977, Connors et al., Goldin et al., 1981; cited from earlier work
[6] = design: method as in Rutty et al., 1982; conditions: patients of this trial, not detectable; ref Rutty et al., 1982; cited from earlier work
[7] = design: method as in Rutty et al., 1982; conditions: rats; ref Rutty et al., 1982; cited from earlier work
[8] = design: method as in Rutty et al., 1982; conditions: mice; ref Rutty et al., 1982; cited from earlier work
[9] = design: method as in Ames et al. (1979); conditions: rabbits, independent of the route (i.v. and oral); ref Ames et al. (1979); cited from earlier work
patients = conditions: cited from earlier work
[10] = patient eight, PMM dose 300 mg m-2 i.v., hepatic function abnormal
[11] = patient five, PMM dose 200 mg m-2 i.v., hepatic function abnormal
[12] = patient four, PMM dose 200 mg m-2 i.v., hepatic function normal
[13] = patient one, PMM dose 300 mg m-2 i.v., hepatic function normal
[14] = patient seven, PMM dose 500 mg m-2 i.v., hepatic function normal
[15] = patient six, PMM dose 100 mg m-2 i.v., hepatic function normal
[16] = patient three, PMM dose 500 mg m-2 i.v., hepatic function abnormal
[17] = patient two, PMM dose 100 mg m-2 i.v., hepatic function normal
[18] = patients with normal liver function

## CNc1nc(N)nc(NC)n1 [N2,N4-dimethylmelamine]
[1]
  Detection as PMM metabolite in plasma: observed

## CNc1nc(NC)nc(NC)n1 [TRIMM, N2,N4,N6-trimethylmelamine]
[1]
  Detection as PMM metabolite in plasma: detected
[1]; [10]
  Area under the plasma conc. v. time curve: 627 IM x min
[1]; [11]
  Area under the plasma conc. v. time curve: 1438 IM x min
[1]; [12]
  Area under the plasma conc. v. time curve: 1070 IM x min
[1]; [13]
  Area under the plasma conc. v. time curve: 4091 IM x min
[1]; [14]
  Area under the plasma conc. v. time curve: 3710 IM x min
[1]; [15]
  Area under the plasma conc. v. time curve: 573 IM x min
[1]; [16]
  Area under the plasma conc. v. time curve: 7995 IM x min
[1]; [17]
  Area under the plasma conc. v. time curve: 189 IM x min
[1]; [18]
  Plasma concentration relative to parent drug: greater concentrations than the parent drug

## CN(C)c1nc(N(C)C)nc(N(C)C)n1 [HMM, hexamethylmelamine]
[2]
  HMM AUC 0-12h: 763 +163 iMxmin

## CNc1nc(N)nc(N(C)C)n1 [N2,N2,N4-trimethylmelamine]
[1]
  Quantity of metabolite in plasma: minor quantities

## CNc1nc(NC)nc(N(C)C)n1 [TMM, N2,N2,N4,N6-tetramethylmelamine]
[1]
  Detection as PMM metabolite in plasma: detected
[1]; [10]
  Area under the plasma conc. v. time curve: 2121 IM x min
[1]; [11]
  Area under the plasma conc. v. time curve: 1804 IM x min
[1]; [12]
  Area under the plasma conc. v. time curve: 397 IM x min
[1]; [13]
  Area under the plasma conc. v. time curve: 3697 IM x min
[1]; [14]
  Area under the plasma conc. v. time curve: 2693 IM x min
[1]; [15]
  Area under the plasma conc. v. time curve: 204 IM x min
[1]; [16]
  Area under the plasma conc. v. time curve: 6206 IM x min
[1]; [17]
  Area under the plasma conc. v. time curve: 151 IM x min
[1]; [18]
  Plasma concentration relative to parent drug: greater concentrations than the parent drug

## CN(C)c1nc(N)nc(N(C)C)n1 [N2,N2,N4,N4-tetramethylmelamine]
[1]
  Quantity of metabolite in plasma: minor quantities

## CNc1nc(N(C)C)nc(N(C)C)n1 [PMM, Pentamethylmelamine]
[3]; 100 mg m-2 i.v. infusion
  Nausea/vomiting Intensity: Mild
[3]; 100 mg m-2 i.v. infusion, 3 patients
  Nausea/vomiting Frequency: 0/7
[3]; 200 mg m-2 i.v. infusion, 3 patients
  Nausea/vomiting Frequency: 1/7
[3]; 300 mg m-2 i.v. infusion
  Nausea/vomiting Intensity: Moderate (vomiting that persisted up to 6 h after infusion and requiring a maximum administration of two courses of anti- emetics was regarded as moderate)
[3]; 300 mg m-2 i.v. infusion, 3 patients
  Nausea/vomiting Frequency: 2/5
[3]; 500 mg m-2 and above
  Patients with nausea and vomiting: all patients
[3]; 500 mg m-2 i.v. infusion, 3 patients
  Nausea/vomiting Frequency: 8/8
[3]; 800 mg m-2 i.v. infusion
  Nausea/vomiting Intensity: Severe (Vomiting was classified as severe if it continued up to 24 h after PMM infusion and/or could only be controlled partially by repeated doses of anti-emetics)
[3]; 800 mg m-2 i.v. infusion, 3 patients
  Nausea/vomiting Frequency: 7/7
[3]; 1300 mg m-2 i.v. infusion
  Duration of nausea and vomiting: > 24 h
[3]; 1300 mg m-2 i.v. infusion, 2 patients
  Nausea/vomiting Frequency: 4/4
[3]; 1300 mg m-2 i.v. infusion, poorly controlled by anti-emetics
  Severity of nausea and vomiting: severe
[3]; 100-1300 mg m-2 i.v. infusion
  Haematological toxicity: not observed
  Hepatic toxicity: not observed
  Renal toxicity: not observed
[3]; doses below 500 mg m-2, not assessable at higher doses because of anti-emetics
  Acute neurological side effects: no neurological side effects were observed
[3]; i.v. infusion 100-1300 mg m-2, 3 weekly
  Dose-limiting toxicities: nausea and vomiting
[3]; one patient at 200 mg m-2 (2nd course), one at 1300 mg m-2, other medications possibly responsible
  Pruritic erythematous maculopapular skin rashes: Two patients
[1]; 1 h infusion, 100-300 mg m-2, P = 0.005
  Correlation (r) of plasma levels at the end of the infusion with dose: 0.94
[1]; human, plasma, 100 mg m-2, patient six, 100 mg m-2, hepatic function normal, value + s.e., read-out: PMM plasma t1/2 (overall elimination phase)
  half-life: 54.1 min
[1]; human, plasma, 200 mg m-2, patient five, 200 mg m-2, hepatic function abnormal, value + s.e., read-out: PMM plasma t1/2 (overall elimination phase)
  half-life: 135 min
[1]; human, plasma, 300 mg m-2, patient eight, 300 mg m-2, hepatic function abnormal, value + s.e., read-out: PMM plasma t1/2 (overall elimination phase)
  half-life: 153 min
[1]; human, plasma, 300 mg m-2, patient one, 300 mg m-2, hepatic function normal, value + s.e., read-out: PMM plasma t1/2 (overall elimination phase)
  half-life: 72.8 min
[1]; human, plasma, 500 mg m-2, patient seven, 500 mg m-2, hepatic function normal, value + s.e., read-out: PMM plasma t1/2 (overall elimination phase)
  half-life: 68.6 min
[1]; human, plasma, 500 mg m-2, patient three, 500 mg m-2, hepatic function abnormal, value + s.e., read-out: PMM plasma t1/2 (overall elimination phase)
  half-life: 127 min
[1]; human, plasma, patients with hepatic disease and abnormal liver function tests, mean + SEM, n = 3, P = 0.002 vs normal, read-out: PMM t1/2, group mean
  half-life: 138 min
[1]; human, plasma, patients with normal liver function, mean + SEM, n = 3, read-out: PMM t1/2, group mean
  half-life: 65 min
[1]; human, plasma, iv, i.v. PMM 100-300 mg m-2, n = 6, mean + SEM, read-out: PMM AUC 0-12h (converted)
  AUC(0-t): 72.3 µM·h
[1]; [10]
  Area under the plasma conc. v. time curve: 6019 IM x min
[1]; [11]
  Area under the plasma conc. v. time curve: 7175 IM x min
[1]; patient four, 200 mg m-2, hepatic function normal
  PMM pharmacokinetics in the disposition phase (order): not first-order
[1]; [12]
  Area under the plasma conc. v. time curve: 1694 IM x min
[1]; [13]
  Area under the plasma conc. v. time curve: 6232 IM x min
[1]; [14]
  Area under the plasma conc. v. time curve: 3940 IM x min
[1]; [15]
  Area under the plasma conc. v. time curve: 734 IM x min
[1]; [16]
  Area under the plasma conc. v. time curve: 7179 IM x min
[1]; patient two, 100 mg m-2, hepatic function normal
  PMM pharmacokinetics in the disposition phase (order): not first-order
[1]; [17]
  Area under the plasma conc. v. time curve: 317 IM x min
Malignant tumours; 500 mg m-2, patient with squamous cell carcinoma of bronchus
  Minor response: One minor response
Malignant tumours; 17 patients, 100-1300 mg m-2
  Complete or partial responses: No complete or partial responses
[4]
  Chemical stability: greater chemical stability
[5]
  Activity relative to HMM: equivalent activity
[6]
  PMM metabolites capable of releasing formaldehyde in plasma: < 50 µM
[7]
  PMM metabolites capable of releasing formaldehyde in plasma: 211 yM
[8]
  PMM metabolites capable of releasing formaldehyde in plasma: 563 to 773 µM
[9]
  Urinary excretion of drug-derived material: 75-85 % dose admin.
patients; 1.2 g/m2/day x 10, ref Goldberg et al. (1980)
  Haematological toxicity: reproducibly induced haematological toxicity
patients; of 173 patients, ref Casper et al., 1981
  Partial response among all patients who have received PMM: 1
patients; of 173 patients, ref Van Echo et al., 1980, Ajani et al., 1982 and the present study
  Minor responses among all patients who have received PMM: 7
